# According to patent publication US9296762B2, “Complexing agents and corresponding lanthanide complexes” (CISBIO BIOASSAYS, priority 2011, dated 2016):
# What was measured:
# [1] = UV spectra of the chromophores, maximum absorption wavelength; format: physicochemical; settings: UV spectrum of chromophore 78, carboxylate function protected in ester form
# Method: Several compounds according to the invention were prepared and their photophysical properties, in particular the wavelengths corresponding to their maximum absorption peaks (λmax), were determined. The structures of these compounds and the results obtained are described in table 2.
# The chromophores (similar to compound 78, carboxylate function protected in ester form) were synthesized according to the protocol described in scheme 13, using one of the two approaches “A” or “B” as described in this scheme (including that for the chromophores comprising naphthyl, thiolanyl, imidazolyl and anthracenyl rings or heterocycles). For each chromophore, the UV spectra were recorded and the maximum absorption wavelengths (λmax) were determined and reported in table 2.
# [2] = Photophysical properties of symmetrical europium TACN complexes 81; format: physicochemical; settings: symmetrical europium TACN complex 81 made of three identical chromophores
# Method: For certain chromophores, europium complexes according to the invention in which the three chromophores are identical (symmetrical complexes) were prepared using the protocol described in scheme 14, with a TACN macrocycle (the synthetic yields for the intermediate compounds 79, 80 and 81 of scheme 14 were reported in table 2). The photophysical properties of these europium complexes were determined and also reported in this table.
SMILES,Chromophore 78 λmax (nm) [1] [nm],Complex 81 Quantic yield (%) [2] [%],Complex 81 λmax (nm) [2] [nm]
COC(=O)c1cc(C#Cc2ccc(O)cc2)cc(CO)n1,324,–,–
COC(=O)c1cc(C#Cc2ccccc2OC)cc(CO)n1,323,46,336
COC(=O)c1cc(C#Cc2ccc(Oc3ccccc3)cc2)cc(CO)n1,315,–,–
COC(=O)c1cc(C#Cc2cccc3ccccc23)cc(CO)n1,329,–,–
COC(=O)c1cc(C#Cc2ccc(-c3ccccc3)cc2)cc(CO)n1,318,–,–
COC(=O)c1cc(C#Cc2ccc(NC(=O)OC(C)(C)C)cc2)cc(CO)n1,326,–,–
COC(=O)c1cc(C#Cc2ccc(NC(=O)c3ccccc3)cc2)cc(CO)n1,323,–,–
COC(=O)c1cc(C#Cc2ccc(SC)cc2)cc(CO)n1,332,–,–
COC(=O)c1cc(C#Cc2ccc(OCC(=O)OC(C)(C)C)cc2)cc(CO)n1,318,–,–
COC(=O)c1cc(C#Cc2ccccc2)cc(CO)n1 [reference compound],291,–,–

# Results, then the compound that gave them:
Chromophore 78 λmax (nm) [1] [nm],Complex 81 Quantic yield (%) [2] [%],Complex 81 λmax (nm) [2] [nm],SMILES
322,–,–,COC(=O)c1cc(C#Cc2ccc(NC(C)=O)cc2C)cc(CO)n1
320,52,333,COC(=O)c1cc(C#Cc2ccc(OC)cc2)cc(CO)n1
319,–,–,COC(=O)c1cc(C#Cc2ccc(OC)cc2OC)cc(CO)n1
319,11,336,COC(=O)c1cc(C#Cc2cc(OC)c(C)c(OC)c2)cc(CO)n1
335,–,–,COC(=O)c1cc(C#Cc2ccc3cc(OC)ccc3c2)cc(CO)n1
326,52,323,COC(=O)c1cc(C#Cc2ccsc2)cc(CO)n1
315,54,333,COC(=O)c1cc(C#Cc2cncn2C)cc(CO)n1
324,–,–,COC(=O)c1cc(C#Cc2ccc(NC(=O)c3cc(OC)c(OC)c(OC)c3)cc2)cc(CO)n1
326,76,343,COC(=O)c1cc(C#Cc2ccc(OC)cc2C)cc(CO)n1
326,–,–,COC(=O)c1cc(C#Cc2c3ccccc3cc3ccccc23)cc(CO)n1
